# From patent publication US11845770B2, “Ascaroside derivatives and methods of use” (California Institute of Technology, priority 2019, dated 2023)
# Entries after “also recorded” stand apart in the source; their conditions may differ.
# Key:
# Assay type in all cases: cell-based
# [1] = system: THP1 human macrophage cells; assay: Stimulation of THP-1 cells, IL-6 at 6 or 36 hours post stimulation; details: THP1-derived macrophages, IFNγ + LPS, 0.1 to 500 μM, FIG. 9
# Experimental: Human immortalized monocytic THP-1 cells were maintained in phenol red free RPMI 1640 medium containing 10% (v/v) fetal bovine serum (FBS), 2 mM L-glutamine, penicillin (100 units/mL), streptomycin (100 μg/mL), amphotericin B (2.5 μg/mL), and 50 μM beta-mercaptoethanol (BME) at 37° C. with 5% (v/v) CO2. THP-1 cells were seeded in 1 mL of THP-1 medium (cell culture medium containing 10% (v/v) FBS, 2 mM L-glutamine, penicillin (100 units/mL), streptomycin (100 μg/mL), amphotericin B ([…]), and 50 μM BME)/well at a density of 1×10^6 cells/mL in six-well plates. Cells were differentiated by adding 10, 50, or 100 nM phorbol 12-myristate 13-acetate (PMA) to each well before incubating cells for 5.5 h at 37° C. with 5% (v/v) CO2. Without removing the media, different concentrations (either 0, 0.1, 1.0, 10, 100, 200, or 500 μM) of the compound were added to each well. Cells were stimulated, within 30 min by adding 20 ng/mL interferon gamma (IFNγ) and 100 ng/mL lipopolysaccharide (LPS) to each well. Following stimulation, the THP-1 cells were incubated for 6 or 36 hours at 37° C. with 5% (v/v) CO2. Supernatant was collected and stored at −80° C. until use.
# IL-6 released from supernatants collected at 6 or 36 hours post stimulation with IFNγ and LPS were measured using the AlphaLISA Human IL-6 detection kit.
# [2] = system: BEAS-2B human lung epithelial cells; assay: Stimulation of BEAS-2B human lung epithelial cells, cytokine expression; details: 20 ng/mL IL-1β, 48 h; for percent inhibition relative to Stimulated of Eotaxin expression: FIG. 12, FIG. 13
# Experimental: BEAS-2B cells were maintained in Bronchial Epithelial Cell Growth Basal Medium (BEBM) containing all the recommended supplements for the Bronchial Epithelial Cell Growth Medium (BEGM; Lonza #CC-4175) and allowed to attain approximately 70% confluency with media changed every 2-3 days at 37° C. with 5% (v/v) CO2. Tissue culture flasks/vessels were pre-coated with a mixture of 0.01 mg/mL fibronectin (Sigma), 0.03 mg/ml bovine collagen type I (Sigma) and 0.01 mg/mL bovine serum albumin dissolved in the BEBM. BEAS-2B cells were seeded with 0.5 ml of 1×10^6 cells/mL in BEGM per well on 24-well plates and incubated overnight at 37° C. with 5% (v/v) CO2. The cells are pre-treated with different concentrations of compounds (0, 1.0, 10, 100, 1000 μM) for 1 hour prior to stimulation. To stimulate the cells, 10 ng/mL of Interleukin-1 beta (IL-1β), 10 ng/mL of Lipopolysaccharides (LPS), or 20 ng/mL of IL-1$ is added to the wells without removing the media and incubated for 48 hours at 37° C. with 5% (v/v) CO2. Supernatants were collected and stored at −80° C. until quantitative detection assays are performed. Human Eotaxin, Monocyte Chemoattractant Protein-1 (MCP-1), Interleukin-6 (IL-6), Interleukin-25 (IL-25), Interleukin-33 (IL-33), Thymic stromal lymphopoietin (TSLP), and Granulocyte-Macrophage Colony-Stimulating Factor (GM-CSF) released from supernatants collected post stimulation were measured using Human Magnetic Luminex® Assay Kit. Human CCL5/RANTES was measured using an Enzyme-Linked Immunosorbent Assay (ELISA)-based analysis.
# [3] = system: EPC2 human esophageal keratinocytes; assay: Stimulation of EPC2-hTERT human esophageal keratinocytes with Poly(I:C); details: 24 hours; for percent inhibition relative to Stimulated of IL-6 expression: FIG. 19B; for percent inhibition relative to Stimulated of MCP-1 expression: FIG. 19C; for percent inhibition relative to Stimulated of TSLP expression: FIG. 19A
# Experimental: EPC2-hTERT (EPC2) cells were maintained in supplemented keratinocyte serum-free medium (KSFM) with 0.09 mM calcium chloride containing epidermal growth factor (5 ng/mL), bovine pituitary extract ([…]), penicillin (100 units/mL), and streptomycin ([…]) (ThermoFisher #17005042) at 37° C. with 5% (v/v) CO2. EPC2 cells were seeded in 12-well plates at 0.55×10^6 cells per well in supplemented KSFM at 37° C. with 5% (v/v) CO2 and after 6 hours the old media is removed and changed with fresh media. After overnight incubation, the old media is changed to supplemented KSFM containing 1.8 mM calcium chloride and incubated for 72 hours at 37° C. with 5% (v/v) CO2. After the old media is removed and fresh supplemented KSFM containing 1.8 mM calcium chloride is added, the cells are pre-treated with different concentrations of compounds (0, 1, 10, 100, 500, 1000 μM) for 1 hour prior to stimulation. To stimulate the cells, Poly (I:C) (Tocris #4287) is added to the wells at […] concentration without removing the media and incubated for 24 hours at 37° C. with 5% (v/v) CO2. Supernatants are collected in Eppendorf tubes, centrifuged in a microfuge at maximum speed for 10 minutes at 4° C., and the centrifuged supernatants stored at −80° C. until quantitative detection assays are performed. Human Interleukin-6 (IL-6), Monocyte Chemoattractant Protein-1 (MCP-1), and Thymic stromal lymphopoietin (TSLP) released from supernatants collected post stimulation were measured using the AlphaLISA detection kit for human IL-6, MCP-1, and TSLP, respectively.
# human naïve T cells = assay: Stimulation of blood derived naïve T cells with Der p1 (house dust mite) antigen; details: at 100 μM; human T cells, Der p1 antigen; FIG. 15
# Experimental: Naïve T cells from peripheral blood samples were collected and processed using MACSxpress® Whole Blood Pan T Cell Isolation Kit (Miltenyi Biotec), according to the manufacturer's protocol. Isolated naïve T cells were cultured in RPMI medium supplemented with 5% Fetal Bovine Serum (FBS) at 37° C. with 5% (v/v) CO2. T cells were seeded in 24 well plates at a density of 0.5×10^6 cells per well. The cells were pre-treated with the compounds (0, 0.1, 1.0, 10, 100 μM) for 1 hour prior to stimulation. Cells were stimulated with […] of Dermatophagoides pteronyssinus (Der p1) antigen. After 48 hours, fresh […] of Der p1 was added and continued incubating for a further 72 hours at 37° C. with 5% (v/v) CO2. Overall T cells were stimulated with […] of Der p1 antigen for 5 days before supernatants were collected and stored at −80° C. until quantitative detection assays are performed.
# Human Interleukin-4 (IL-4), Interleukin-5 (IL-5), Interleukin-6 (IL-6), Interleukin-8 (IL-8), Interleukin-13 ([…]), Interleukin-23 (IL-23), and Interferon gamma (IFNγ) released from supernatants collected post stimulation were measured using Human Magnetic Luminex® Assay Kit. Human Transforming Growth Factor beta (TGFβ) was measured using an Enzyme-Linked Immunosorbent Assay (ELISA)-based analysis.
smiles,measurement,setting,value
"C[C@H](CCC1CC1C(=O)OC(C)(C)C)O[C@@H]1O[C@@H](C)[C@H](O)C[C@H]1O (stereo partly drawn) [Compound 2, tert-butyl 2-[(3R)-3-{[(2R,3R,5R,6S)-3,5-dihydroxy-6-methyloxan-2-yl]oxy}butyl]cyclopropane-1-carboxylate]",percent inhibition relative to Control of IL-6 levels secreted,[1],"inhibited IL-6 expression in statistically significant, dose-dependent manner"
same,percent inhibition relative to Stimulated of Eotaxin expression,[2],"statistically significant, complete inhibition"
same,percent inhibition relative to Stimulated of IL-6 expression,[3]; increasing concentrations,inhibited IL6 expression in statistically significant manner
same,percent inhibition relative to Stimulated of MCP-1 expression,[3]; increasing concentrations,inhibited MCP-1 expression in statistically significant manner; also recorded: only showed inhibition at the highest 100 μM concentration
same,percent inhibition relative to Stimulated of IL-6 expression,[3]; at 100 μM,robust inhibition
"C[C@H](CC/C=C/C(=O)OCc1ccccc1)O[C@@H]1O[C@@H](C)[C@H](O)C[C@H]1O [Compound 4, benzyl (2E,6R)-6-{[(2R,3R,5R,6S)-3,5-dihydroxy-6-methyloxan-2-yl]oxy}hept-2-enoate]",percent inhibition relative to Stimulated of IL-6 expression,human naïve T cells,statistically significant inhibition
same,percent inhibition relative to Stimulated of IL-8 expression,human naïve T cells,statistically significant inhibition
same,percent inhibition relative to Stimulated of TNFα expression,human naïve T cells,statistically significant inhibition
same,percent inhibition relative to Stimulated of TSLP expression,[3]; increasing concentrations,statistically significant inhibition; also recorded: completely inhibited
same,percent inhibition relative to Stimulated of IL-6 expression,[3]; increasing concentrations,"inhibited IL-6 expression in statistically significant, dose-dependent manner"
same,percent inhibition relative to Stimulated of MCP-1 expression,[3]; increasing concentrations,inhibited MCP-1 expression in statistically significant manner; also recorded: only showed inhibition at the highest 100 μM concentration
"C[C@H](CC/C=C/C(=O)OCc1cccnc1)O[C@@H]1O[C@@H](C)[C@H](O)C[C@H]1O [Compound 5, pyridin-3-ylmethyl (2E,6R)-6-{[(2R,3R,5R,6S)-3,5-dihydroxy-6-methyloxan-2-yl]oxy}hept-2-enoate]",percent inhibition relative to Control of IL-6 levels secreted,[1],"inhibited IL-6 expression in statistically significant, dose-dependent manner"
"C[C@H](CC/C=C/C(=O)OCc1ccncc1)O[C@@H]1O[C@@H](C)[C@H](O)C[C@H]1O [Compound 6, pyridin-4-ylmethyl (2E,6R)-6-{[(2R,3R,5R,6S)-3,5-dihydroxy-6-methyloxan-2-yl]oxy}hept-2-enoate]",percent inhibition relative to Control of IL-6 levels secreted,[1],"inhibited IL-6 expression in statistically significant, dose-dependent manner"
same,percent inhibition relative to Stimulated of IL-33 expression,[2]; FIG. 12,statistically significant inhibition
same,percent inhibition relative to Stimulated of TSLP expression,[2]; FIG. 12,statistically significant inhibition
same,percent inhibition relative to Stimulated of Eotaxin expression,[2],statistically significant inhibition
same,percent inhibition relative to Stimulated of IL-25 expression,"[2]; compound concentration series, FIG. 12",robust inhibition of IL-25 expression at 1 mM concentration
same,"percent inhibition relative to Stimulated of IL-25 expression, level at which it topped out","[2]; even at 100 μM, FIG. 12",60%
"CC(C)OC(=O)/C=C/CC[C@@H](C)O[C@@H]1O[C@@H](C)[C@H](O)C[C@H]1O [Compound 8, isopropyl (R,E)-6-(((2R,3R,5R,6S)-3,5-dihydroxy-6-methyltetrahydro-2H-pyran-2-yl)oxy)hept-2-enoate]",percent inhibition relative to Control of IL-6 levels secreted,[1],"inhibited IL-6 expression in statistically significant, dose-dependent manner"
"C[C@H](CCC(O)CC(=O)OC(C)(C)C)O[C@@H]1O[C@@H](C)[C@H](O)C[C@H]1O (stereo partly drawn) [Compound 9, tert-butyl (6R)-6-(((2R,3R,5R,6S)-3,5-dihydroxy-6-methyltetrahydro-2H-pyran-2-yl)oxy)-3-hydroxyheptanoate]",percent inhibition relative to Control of IL-6 levels secreted,[1],"inhibited IL-6 expression in statistically significant, dose-dependent manner"
"C[C@@H]1O[C@@H](OCCC/C=C/C(=O)OC(C)(C)C)[C@H](O)C[C@H]1O [Compound 11, tert-butyl (E)-6-(((2R,3R,5R)-3,5-dihydroxy-6-methyltetrahydro-2H-pyran-2-yl)oxy)hex-2-enoate]",percent inhibition relative to Control of IL-6 levels secreted,[1],"inhibited IL-6 expression in statistically significant, dose-dependent manner"
same,percent inhibition relative to Stimulated of MCP-1 expression,[3]; increasing concentrations,"inhibited MCP-1 expression in statistically significant, dose-dependent manner"
"C[C@H](CC/C=C/C(=O)N1CCCC1)O[C@@H]1O[C@@H](C)[C@H](O)C[C@H]1O [Compound 13, (R,E)-6-(((2R,3R,5R,6S)-3,5-dihydroxy-6-methyltetrahydro-2H-pyran-2-yl)oxy)-1-(pyrrolidin-1-yl)hept-2-en-1-one]",percent inhibition relative to Control of IL-6 levels secreted,[1],"inhibited IL-6 expression in statistically significant, dose-dependent manner"
same,percent inhibition relative to Stimulated of TSLP expression,[3]; increasing concentrations,inhibited TSLP expression in statistically significant manner; also recorded: robust blocking
same,percent inhibition relative to Stimulated of MCP-1 expression,[3]; increasing concentrations,inhibited MCP-1 expression in statistically significant manner
same,percent inhibition relative to Stimulated of MCP-1 expression,"[3]; increasing concentrations, listed as compound 13",robust blocking of MCP-1 expression starting at 1 mM
